Laboratory results as given in ChEMBL document CHEMBL1129195, “New antithrombotic RGD-mimetics with high bioavailability” (1996).

Legend:
[1] = test system: Monkey; assay: Ex vivo inhibition of collagen-induced platelet aggregation in cynomolgus monkey after i.v. administration.; format: functional; conditions: Cercopithecidae, in Macaca fascicularis, iv
[2] = test system: Cavia porcellus; assay: Ex vivo inhibition of collagen-induced platelet aggregation in guinea pig after p.o. administration.
[3] = test system: Monkey; assay: Ex vivo inhibition of collagen-induced platelet aggregation in cynomolgus monkey after p.o. administration.; format: functional; conditions: Cercopithecidae, in Macaca fascicularis, po
[4] = test system: Cavia porcellus; assay: Ex vivo inhibition of collagen-induced platelet aggregation in guinea pig after i.v. administration.; format: functional; conditions: iv

ED50 [2] | Structure (SMILES) | ED50 [1] | ED50 [3] | ED50 [4]
0.2 mg/kg | CCOC(=O)CN1CCN(C[C@@H]2CN(c3ccc(C(=N)NC(=O)OC)cc3)C(=O)O2)CC1 [GANTOFIBAN] | 0.5 mg/kg | 0.07 mg/kg | 
0.32 mg/kg | CCOC(=O)CN1CCN(C[C@@H]2CN(c3ccc(C(=N)NC(=O)c4ccccc4)cc3)C(=O)O2)CC1 | 0.13 mg/kg | 1.3 mg/kg | 0.09 mg/kg
3 mg/kg | CCOC(=O)CC1CCN(CC2CN(c3ccc(C(=N)NC(=O)c4ccccc4)cc3)C(=O)O2)CC1 (configuration not stated) |  |  | 
> 10 mg/kg | CC(C)(C)OC(=O)CCN1CCN(CC2CN(c3ccc(C(=N)NC(=O)c4ccccc4)cc3)C(=O)O2)CC1 (configuration not stated) |  |  | 
0.17 mg/kg | CCOC(=O)CN1CCN(C[C@@H]2CN(c3ccc(C(=N)NC(=O)OCC)cc3)C(=O)O2)CC1 |  | 0.7 mg/kg | 
3 mg/kg | CCOC(=O)CC1(O)CCN(CC2CN(c3ccc(C(=N)NC(=O)c4ccccc4)cc3)C(=O)O2)CC1 (configuration not stated) |  |  | 
0.4 mg/kg | CCOC(=O)CN1CCN(C[C@@H]2CN(c3ccc(C(=N)NC(=O)C(C)C)cc3)C(=O)O2)CC1 |  | 1.3 mg/kg | 
 | CCOC(=O)CN1CCN(CC2CN(c3ccc(C(=N)NC(=O)c4cccnc4)cc3)C(=O)O2)CC1 (configuration not stated) |  |  | 1 mg/kg
< 1 mg/kg | CCOC(=O)CN1CCN(C[C@@H]2CN(c3ccc(C(=N)NC(=O)OCc4ccccc4)cc3)C(=O)O2)CC1 |  | > 1 mg/kg | 
 | CC(C)(C)OC(=O)CN1CCN(C[C@@H]2CN(c3ccc(C(=N)N)cc3)C(=O)O2)CC1 |  |  | 1 mg/kg
> 10 mg/kg | CCOC(=O)CCN1CCN(CC2CN(c3ccc(C(=N)NC(=O)OC)cc3)C(=O)O2)CC1 (configuration not stated) |  |  | 
> 1 mg/kg | CCOC(=O)CN1CCN(C[C@H]2CN(c3ccc(C(=N)NC(=O)c4ccccc4)cc3)C(=O)O2)CC1 |  |  | 
> 10 mg/kg | CC(=O)O/N=C(/N)c1ccc(N2C[C@@H](CN3CCN(CC(=O)O)CC3)OC2=O)cc1 |  |  | 
> 10 mg/kg | CCOC(=O)CCN1CCN(C[C@H]2CN(c3ccc(C(=N)NC(=O)c4ccccc4)cc3)C(=O)O2)CC1 |  |  | 
< 1 mg/kg | CCOC(=O)CN1CCN(C[C@@H]2CN(c3ccc(C(=N)NC(=O)c4cccc(C(F)(F)F)c4)cc3)C(=O)O2)CC1 |  | > 1 mg/kg | 
0.4 mg/kg | CCOC(=O)CN1CCN(CC2CN(c3ccc(C(=N)NC(=O)OC)cc3)C(=O)O2)CC1 (configuration not stated) |  |  | 0.4 mg/kg
1 mg/kg | CC(C)(C)OC(=O)CN1CCN(C[C@@H]2CN(c3ccc(C(=N)NC(=O)c4ccccc4)cc3)C(=O)O2)CC1 |  | > 1 mg/kg | 0.4 mg/kg
> 1 mg/kg | CCOC(=O)CN1CCN(C[C@@H]2CN(c3ccc(C(=N)N)cc3)C(=O)O2)CC1 |  |  | 0.08 mg/kg
< 1 mg/kg | CCOC(=O)CN1CCN(CC2CN(c3ccc(C(=N)NC(=O)c4ccco4)cc3)C(=O)O2)CC1 (configuration not stated) |  | > 1 mg/kg | 
> 10 mg/kg | N/C(=N/C(=O)c1ccccc1)c1ccc(N2C[C@@H](CN3CCN(CC(=O)O)CC3)OC2=O)cc1 |  |  | 
0.1 mg/kg | COC(=O)CN1CCN(C[C@@H]2CN(c3ccc(C(=N)NC(=O)OC)cc3)C(=O)O2)CC1 |  | 0.8 mg/kg | 
< 1 mg/kg | CCOC(=O)CN1CCN(C[C@@H]2CN(c3ccc(C(=N)NC(=O)c4ccc(OC)cc4)cc3)C(=O)O2)CC1 |  | > 1 mg/kg | 
> 1 mg/kg | CCOC(=O)CCN1CCN(C[C@@H]2CN(c3ccc(C(=N)NC(=O)c4ccccc4)cc3)C(=O)O2)CC1 |  |  | 
> 1 mg/kg | COC(=O)/N=C(/N)c1ccc(N2CC(CN3CCN(CC(=O)OC(C)(C)C)CC3)OC2=O)cc1 (configuration not stated) |  |  | 
10 mg/kg | CCOC(=O)C1CCN(CC2CN(c3ccc(C(=N)NC(=O)c4ccccc4)cc3)C(=O)O2)CC1 (configuration not stated) |  |  | 
0.2 mg/kg | CCOC(=O)CN1CCN(CC2CN(c3ccc(C(=N)NC(=O)Oc4ccccc4)cc3)C(=O)O2)CC1 (configuration not stated) |  |  | 
